Reference: US20240343704A1, “HALO-SUBSTITUTED AMINO PYRIDINE COMPOUNDS AS INHIBITORS OF THE HAEMATOPOIETIC PROGENITOR KINASE 1 (HPK1)” (priority 2021, published 2024)

molecular target: T1, Recombinant (1-346) HPK1 (h) (Homo sapiens, UniProt Q92918); assay: HPK1 Human STE Kinase Enzymatic Radiometric Assay; type: biochemical; conditions: read-out: HPK1 IC50 nM Range*
T1 construct: Recombinant (1-346) HPK1 (h) is incubated with 8 mM MOPS pH 7.0
T1 sequence (Q92918 1-346): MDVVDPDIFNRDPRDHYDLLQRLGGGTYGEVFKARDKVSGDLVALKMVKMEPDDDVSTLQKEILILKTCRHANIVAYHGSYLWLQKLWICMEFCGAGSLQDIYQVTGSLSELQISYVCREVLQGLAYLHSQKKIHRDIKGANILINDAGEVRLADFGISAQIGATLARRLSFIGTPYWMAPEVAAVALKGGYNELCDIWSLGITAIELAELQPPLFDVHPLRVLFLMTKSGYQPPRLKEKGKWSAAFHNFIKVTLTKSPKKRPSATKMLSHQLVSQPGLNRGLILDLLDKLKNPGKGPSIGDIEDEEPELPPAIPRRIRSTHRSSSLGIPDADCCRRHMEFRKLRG
Description: A stock solution of 10 mM of test compound is prepared in DMSO. The compound plate was prepared by 3-fold and 9-point serial dilutions. […] The reaction is initiated by The addition of the Mg/ATP mix. After incubation for 40 minutes at RT, the reaction is stopped by the addition of phosphoric acid to a concentration of 0.5%.

IC50 [nM] | SMILES
0.1 to 10 | CO[C@H]1CCN(Cc2cc(-c3cc(-c4ccc5c(c4)CCNC5=O)c(N)nc3F)ccc2N2CCOCC2)C1 [I-565, (S)-6-(2-amino-6-fluoro-5-(3-((3-methoxypyrrolidin-1-yl)methyl)-4-morpholinophenyl)pyridin-3-yl)-3,4-dihydroisoquinolin-1(2H)-one]
0.1 to 10 | CO[C@H]1CCN(Cc2cc(-c3cc(-c4cc5c(cc4F)C(=O)NCC5)c(N)nc3F)ccc2N2CCOCC2)C1 [I-566, (S)-6-(2-amino-6-fluoro-5-(3-((3-methoxypyrrolidin-1-yl)methyl)-4-morpholinophenyl)pyridin-3-yl)-7-fluoro-3,4-dihydroisoquinolin-1(2H)-one]
0.1 to 10 | CC(=O)N1CCC(Oc2ccc(-c3cc(-c4ccc5c(c4)CCNC5=O)c(N)nc3F)cc2CN(C)C)CC1 [I-568, 6-(5-(4-((1-acetylpiperidin-4-yl)oxy)-3-((dimethylamino)methyl)phenyl)-2-amino-6-fluoropyridin-3-yl)-3,4-dihydroisoquinolin-1(2H)-one]
11 to 100 | CC(=O)N1CCC(Oc2ccc(-c3cc(-c4cc5c(cc4F)C(=O)NCC5)c(N)nc3F)cc2CN(C)C)CC1 [I-569, 6-(5-(4-((1-acetylpiperidin-4-yl)oxy)-3-((dimethylamino)methyl)phenyl)-2-amino-6-fluoropyridin-3-yl)-7-fluoro-3,4-dihydroisoquinolin-1(2H)-one]
0.1 to 10 | COCCN(C)Cc1cc(-c2cc(-c3ccc4c(c3)CCNC4=O)c(N)nc2F)ccc1C1CCOCC1 [I-573, 6-(2-amino-6-fluoro-5-(3-(((2-methoxyethyl)(methyl)amino)methyl)-4-(tetrahydro-2H-pyran-4-yl)phenyl)pyridin-3-yl)-3,4-dihydroisoquinolin-1(2H)-one]
0.1 to 10 | COCCN(C)Cc1cc(-c2cc(-c3cc4c(cc3F)C(=O)NCC4)c(N)nc2F)ccc1C1CCOCC1 [I-574, 6-(2-amino-6-fluoro-5-(3-(((2-methoxyethyl)(methyl)amino)methyl)-4-(tetrahydro-2H-pyran-4-yl)phenyl)pyridin-3-yl)-7-fluoro-3,4-dihydroisoquinolin-1(2H)-one]
11 to 100 | C[C@@H]1CN(c2ccc(-c3cc(-c4ccc5c(c4)CCNC5=O)c(N)nc3F)cc2CN(C)C)CCO1 [I-575, (R)-6-(2-amino-5-(3-((dimethylamino)methyl)-4-(2-methylmorpholino)phenyl)-6-fluoropyridin-3-yl)-3,4-dihydroisoquinolin-1(2H)-one]
0.1 to 10 | C[C@@H]1CN(c2ccc(-c3cc(-c4cc5c(cc4F)C(=O)NCC5)c(N)nc3F)cc2CN(C)C)CCO1 [I-576, (R)-6-(2-amino-5-(3-((dimethylamino)methyl)-4-(2-methylmorpholino)phenyl)-6-fluoropyridin-3-yl)-7-fluoro-3,4-dihydroisoquinolin-1(2H)-one]
0.1 to 10 | Nc1nc(F)c(-c2ccc(N3CCOCC3)c(CN3CCC3)n2)cc1-c1cc2c(cc1F)C(=O)NCC2 [I-579]
0.1 to 10 | CCN(C)Cc1nc(-c2cc(-c3cc4c(cc3F)C(=O)NCC4)c(N)nc2F)ccc1N1CCOCC1 [I-581, 6-(6′-amino-6-((ethyl(methyl)amino)methyl)-2′-fluoro-5-morpholino-[2,3′-bipyridin]-5′-yl)-7-fluoro-3,4-dihydroisoquinolin-1(2H)-one]
0.1 to 10 | COCCN(C)Cc1nc(-c2cc(-c3ccc4c(c3)CCNC4=O)c(N)nc2F)ccc1N1CCOCC1 [I-582, 6-(6′-amino-2′-fluoro-6-(((2-methoxyethyl)(methyl)amino)methyl)-5-morpholino-[2,3′-bipyridin]-5′-yl)-3,4-dihydroisoquinolin-1(2H)-one]
0.1 to 10 | COCCN(C)Cc1nc(-c2cc(-c3cc4c(cc3F)C(=O)NCC4)c(N)nc2F)ccc1N1CCOCC1 [I-583, 6-(6′-amino-2′-fluoro-6-(((2-methoxyethyl)(methyl)amino)methyl)-5-morpholino-[2,3′-bipyridin]-5′-yl)-7-fluoro-3,4-dihydroisoquinolin-1(2H)-one]
0.1 to 10 | CO[C@H]1CCN(Cc2nc(-c3cc(-c4cc5c(cc4F)C(=O)NCC5)c(N)nc3F)ccc2N2CCOCC2)C1 [I-585, (S)-6-(6′-amino-2-fluoro-6-((3-methoxypyrrolidin-1-yl)methyl)-5-morpholino-[2,3′-bipyridin]-5′-yl)-7-fluoro-3,4-dihydroisoquinolin-1(2H)-one]
0.1 to 10 | CC(C)(C)OC(=O)N1CCN(c2ccc(-c3cc(-c4ccc5c(c4)CCNC5=O)c(N)nc3F)nc2)CC1 [I-590, tert-butyl4-(6′-amino-2′-fluoro-5′-(1-oxo-1,2,3,4-tetrahydroisoquinolin-6-yl)-[2,3′-bipyridin]-5-yl) piperazine-1-carboxylate]
0.1 to 10 | CC(=O)N1CCN(c2ccc(-c3cc(-c4cc5c(cc4F)C(=O)NCC5)c(N)nc3F)nc2)CC1 [I-592, 6-(5-(4-acetylpiperazin-1-yl)-6′-amino-2′-fluoro-[2,3′-bipyridin]-5′-yl)-7-fluoro-3,4-dihydroisoquinolin-1(2H)-one]
11 to 100 | CN(C)Cc1cccc(-c2cc(-c3ccc4c(c3)CCNC4=O)c(N)nc2F)c1 [I-594, 6-(2-amino-5-(3-((dimethylamino)methyl)phenyl)-6-fluoropyridin-3-yl)-3,4-dihydroisoquinolin-1(2H)-one]

The next lines start with the compound.

SMILES | IC50 [nM]
Cc1cc2cc(-c3cc(-c4ccc(N5CCN(CCCC(F)F)CC5)cc4)c(F)nc3N)cc(F)c2c(=O)[nH]1 [I-567, 6-(2-amino-5-(4-(4-(4,4-difluorobutyl)piperazin-1-yl)phenyl)-6-fluoropyridin-3-yl)-8-fluoro-3-methylisoquinolin-1(2H)-one] | 0.1 to 10
CC(C)N1CCN(c2ccc(-c3cc(-c4cc5c(Cl)c[nH]c(=O)c5cn4)c(N)nc3F)cc2)CC1 [I-570, 6-(2-amino-6-fluoro-5-(4-(4-isopropylpiperazin-1-yl)phenyl)pyridin-3-yl)-4-chloro-2,7-naphthyridin-1(2H)-one] | 0.1 to 10
Cc1c[nH]c(=O)c2c(F)cc(-c3cc(-c4ccc(N5CCN(C(C)C)CC5)cc4)c(F)nc3N)cc12 [I-571, 6-(2-amino-6-fluoro-5-(4-(4-isopropylpiperazin-1-yl)phenyl)pyridin-3-yl)-8-fluoro-4-methylisoquinolin-1(2H)-one] | 0.1 to 10
Cc1[nH]c(=O)c2cc(F)c(-c3cc(-c4ccc(N5CCN(C(C)C)CC5)cc4)c(F)nc3N)cc2c1F [I-572, 6-(2-amino-6-fluoro-5-(4-(4-isopropylpiperazin-1-yl)phenyl)pyridin-3-yl)-4,7-difluoro-3-methylisoquinolin-1(2H)-one] | 0.1 to 10
Cc1c[nH]c(=O)c2cc(F)c(-c3cc(-c4ccc(N5CCN(C(C)C)CC5)cc4)c(F)nc3N)cc12 [I-577, 6-(2-amino-6-fluoro-5-(4-(4-isopropylpiperazin-1-yl)phenyl)pyridin-3-yl)-7-fluoro-4-methylisoquinolin-1(2H)-one] | 0.1 to 10
Nc1nc(F)c(-c2ccc(N3CCOCC3)c(CN3CCC3)n2)cc1-c1ccc2c(c1)CCNC2=O [I-578, 6-(6′-amino-6-(azetidin-1-ylmethyl)-2-fluoro-5-morpholino-[2,3′-bipyridin]-5′-yl)-3,4-dihydroisoquinolin-1(2H)-one] | 0.1 to 10
CO[C@H]1CCN(Cc2nc(-c3cc(-c4ccc5c(c4)CCNC5=O)c(N)nc3F)ccc2N2CCOCC2)C1 [I-584, (S)-6-(6′-amino-2-fluoro-6-((3-methoxypyrrolidin-1-yl)methyl)-5-morpholino-[2,3′-bipyridin]-5′-yl)-3,4-dihydroisoquinolin-1(2H)-one] | 0.1 to 10
Cc1c[nH]c(=O)c2ccc(-c3cc(-c4ccc(C5CCOCC5)cc4)c(F)nc3N)cc12 [I-586, 6-(2-amino-6-fluoro-5-(4-(tetrahydro-2H-pyran-4-yl)phenyl)pyridin-3-yl)-4-methylisoquinolin-1(2H)-one] | 11 to 100
Cc1cc2cc(-c3cc(-c4ccc(N5CCN(C(C)C)CC5)cc4)c(F)nc3N)c(F)cc2c(=O)[nH]1 [I-587, 6-(2-amino-6-fluoro-5-(4-(4-isopropylpiperazin-1-yl)phenyl)pyridin-3-yl)-7-fluoro-3-methylisoquinolin-1(2H)-one] | 11 to 100
Cc1c[nH]c(=O)c2ccc(-c3cc(-c4ccc(N5CCOCC5)c(CN(C)C)n4)c(F)nc3N)cc12 [I-588, 6-(6′-amino-6-((dimethylamino)methyl)-2′-fluoro-5-morpholino-[2,3′-bipyridin]-5′-yl)-4-methylisoquinolin-1(2H)-one] | 0.1 to 10
CN(C)Cc1nc(-c2cc(-c3ccc4c(=O)[nH]cc(F)c4c3)c(N)nc2F)ccc1N1CCOCC1 [I-589, 6-(6′-amino-6-((dimethylamino)methyl)-2′-fluoro-5-morpholino-[2,3′-bipyridin]-5′-yl)-4-fluoroisoquinolin-1(2H)-one] | 0.1 to 10
Nc1nc(F)c(-c2ccc(N3CCN(CCCC(F)F)CC3)cn2)cc1-c1ccc2c(c1)CCNC2=O [I-593, 6-(6′-amino-5-(4-(4,4-difluorobutyl)piperazin-1-yl)-2′-fluoro-[2,3′-bipyridin]-5′-yl)-3,4-dihydroisoquinolin-1(2H)-one] | 0.1 to 10
Cc1nc2cc(-c3cc(-c4ccc(N5C[C@@H](C)O[C@@H](C)C5)c(CN(C)C)c4)c(F)nc3N)ccc2c(=O)[nH]1 [I-595, 7-(2-amino-5-(3-((dimethylamino)methyl)-4-((2R,6S)-2,6-dimethylmorpholino)phenyl)-6-fluoropyridin-3-yl)-2-methylquinazolin-4(3H)-one] | 11 to 100
